In US10493398B2, “Cyclic amine for selectively removing hydrogen sulphide” (BASF SE, priority 2015, dated 2019):
Where two headings read alike, the source gives them in different places.

Assay: pKA values by half-equivalence method
Format: physicochemical
Conditions: for pKa: amine in water, half neutralized with hydrochloric acid; for pKa decrease from 20 °C to 120 °C (pKa at 20 °C − pKa at 120 °C): difference between 20° C. and 120° C.
Description: The pKA values are suitably measured in aqueous solution with an amine concentration of 0.01 to 0.05 mol/kg at the specified temperature by determining the pH at the half-equivalence point, as shown, for example, by the working examples.
The pKA values of various amines were determined by means of the half-equivalence method. For this purpose, the amines were dissolved in water with a concentration of […] and partly neutralized with half the molar amount of hydrochloric acid (0.005 to 0.025 mol/L). The mass of the amine solutions was 250 g. […] The measurements were conducted at 20 and 120° C. The pH electrode used was the “Hamilton Polylite Plus 120” model, which is calibrated with pH 7 and pH 12 buffer solutions. The measurement was effected in a thermostated closed jacketed vessel with nitrogen blanketing.

[1] = 20° C., read-out: pKA at 20° C.
[2] = 120° C., read-out: pKA at 120° C.

pKa [1] | pKa [2] | pKa decrease from 20 °C to 120 °C (pKa at 20 °C − pKa at 120 °C) | SMILES
10.2 | 7.6 | 2.6 | CC1(C)CC(O)CC(C)(C)N1 [TAAol, 4-hydroxy-2,2,6,6-tetramethylpiperidine]
10.7 | 8.1 | 2.6 | CN(C)C1CC(C)(C)NC(C)(C)C1 [DATP, 4-dimethylamino-2,2,6,6-tetramethylpiperidine]
